Source: PMC6572184, “New γ-Halo-δ-lactones and δ-Hydroxy-γ-lactones with Strong Cytotoxic Activity” (Molecules, 2019)
Read-outs that look alike come from different tables or passages of the source.

Experiments:
[1] = Observation of purified γ-iodo-δ-lactone isomers (decomposition, translactonization); type: physicochemical; conditions: purified trans,trans and cis,trans γ-iodo-δ-lactones; residue an equimolar mixture of trans and cis hydroxylactones
Description: Iodolactonization of 4a–c acids was carried out with I2/KI and NaHCO3 in a water/diethyl ether mixture. […] The yield of reactions was in the range of 69–85%. The reaction conditions prevented the direct synthesis of these compounds because the reaction was carried out in an alkaline solution, whereas hydroxylactonization requires an acidic environment. […] and predominantly formed in this reaction. The excess of trans-isomer is usually observed in the synthesis of γ -lactones. However, the reaction initially gave δ -iodo- γ -lactones, which, through a translactonization reaction, were transformed into the final products–hydroxylactones 12a and 13a. This was confirmed by observations of purified isomers trans,trans and cis,trans γ -iodo- δ -lactones 9b and 10b, and 9c and 10c. […] The carbocation was stabilized by the electron lone pairs of the oxygen atom present in the water molecule. The preparation of hydroxylactones from iodolactones has been described thus far only for biotransformation experiments. The synthesis described here allows obtaining these compounds without microorganisms.

[2] = MTT reduction cytotoxicity assay; type: cell-based, human; conditions: human, AGS cells (human gastric adenocarcinoma), 24 h, read-out: mean percentage of viable cells ± SD
[3] = test system: AGS cell lines (human gastric adenocarcinoma); assay: MTT reduction cytotoxicity assay; type: cell-based; conditions: Homo sapiens
[4] = test system: Escherichia coli ATCC 8739; assay: Bactericidal activity, CFU counting method; type: cell-based; conditions: E. coli ATCC 8739; 18 h at 37 °C; Control 9.47, Control with DMSO 9.30
In short: (§1)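 Bacteria were grown 18 h on LB agar and suspended to 0.5 McFarland in 0.85% saline. Suspensions were mixed with enriched broth and compound (0.1–50 μg/mL, in DMSO) and incubated 18 h at 37 °C. Survivors were counted by CFU, with three repeats, a DMSO negative control and gentamicin as reference.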

[5] = test system: Staphylococcus aureus ATCC 65389; assay: Bactericidal activity, CFU counting method; type: cell-based; conditions: S. aureus ATCC 65389; 18 h at 37 °C; Control 21.36, Control with DMSO 20.85
In short: as §1

[6] = MTT reduction cytotoxicity assay; type: cell-based, mouse; conditions: mouse, L929 cells (mouse fibroblasts), read-out: mean percentage of viable cells ± SD
gastric cancer AGS cells = test system: gastric cancer AGS cells; design: method as in PMID 23792648; conditions: reference anticancer drug; cited from earlier work

| melting point [°C] | Compound | stability of purified isomer (in words) [1] | viability at 24 h, 0.1 μg/mL ([2]; 0.1 μg/mL) [%] | viability at 24 h, 0.5 μg/mL ([2]; 0.5 μg/mL) [%] | viability at 24 h, 5 μg/mL ([2]; 5 μg/mL) [%] | viability at 24 h, 10 μg/mL ([2]; 10 μg/mL) [%] | viability at 24 h, 20 μg/mL ([2]; 20 μg/mL) [%] | viability at 24 h, 50 μg/mL ([2]; 50 μg/mL) [%] | IC50 [3] [µM] | Number of CFU/mL (× 10^7) [4] | Number of CFU/mL (× 10^7) [5] | viability at 24 h, 0.1 μg/mL ([6]; 0.1 μg/mL) [%] | viability at 24 h, 0.5 μg/mL ([6]; 0.5 μg/mL) [%] | viability at 24 h, 5 μg/mL ([6]; 5 μg/mL) [%] | viability at 24 h, 10 μg/mL ([6]; 10 μg/mL) [%] | viability at 24 h, 20 μg/mL ([6]; 20 μg/mL) [%] | viability at 24 h, 50 μg/mL ([6]; 50 μg/mL) [%] | IC50 (gastric cancer AGS cells) [µM] |
| --- | --- | --- | --- | --- | --- | --- | --- | --- | --- | --- | --- | --- | --- | --- | --- | --- | --- | --- |
| 107 to 108 | CC1CC(=O)OC(c2ccccc2)C1I (stereo not drawn) [9b, Trans,trans-tetrahydro-5-iodo-4-methyl-6-phenylpyran-2-one] | rapid decomposition with release of iodine | 54 ± 0.15 | 52 ± 0.15 | 43 ± 0.12 | 26 ± 0.03 | 15 ± 0.06 | 8 ± 0.09 | 1.4 | 9.02 × 10^7 CFU/mL | 21.25 × 10^7 CFU/mL | 23 ± 0.03 | 18 ± 0.03 | 13 ± 0.07 | 11 ± 0.06 | 4 ± 0.15 | 1 ± 0.12 |  |
|  | COc1cccc2c1C(=O)c1c(O)c3c(c(O)c1C2=O)C[C@@](O)(C(=O)CO)C[C@@H]3O[C@H]1C[C@H](N)[C@H](O)[C@H](C)O1 [doxorubicin] |  |  |  |  |  |  |  |  |  |  |  |  |  |  |  |  | 0.025 |
